What was measured:
[1] = tested on: human breast cancer MDA-MB-231 xenograft; experiment: in vivo metastasis mouse Model 1 (seeding and early colonization of circulating tumour cells); parameters: species or system mice; settings: 3.5 mg/Kg intraperitoneal daily for 10 days, relative luminescence of thoracic region
Experimental: In all experiments, each compound was administered by intraperitoneally at 3.5 mg/kg.
(§1) One model (Model 1) studied the effect of the compound's ability to inhibit the seeding and early colonization of circulating tumour cells at distal sites, most commonly in the lungs and liver. Human tumour cell lines were injected into the bloodstream of recipient mice, followed by single daily intraperitoneal injections of the compound (3.5 mg/kg in 1% DMSO) for 10 consecutive days. Tumour burden was monitored longitudinally for up to 8 weeks in vivo by live luminescence imaging, and subsequently histology performed on affected organs at the end of the experiment.
as §1, with “Model 1 tested” for “One model (Model 1) studied”, “Bcl3i compounds” for “the compound's ability”, “Bcl3 inhibitor” for “the compound”
The X axis represents the number of days after xenograft and the Y axis is the relative luminescence of the thoracic region by Xenon IVIS scanning of mice following injection of d-luciferin for 10 minutes.
MDA-MB-231 human breast cancer cells were used in each of the three xenograft models of metastatic breast cancer.

[2] = tested on: human breast cancer cell line MDA-MB-436; experiment: transwell (Boyden chamber) cell migration assay after scratch; type: cell-based; settings: 10 micromolar compound, 24 hours before and 24 hours in transwell chambers, versus DMSO, compound 12, MEKi
Experimental: The migration of cells in the presence of a compound of Formula (I) or Formula (Ia) is determined using a Scratch assay.
For the Scratch Assay, 1 micromolar solutions of the compounds are prepared. In six well plates, the complete growth media of the seeded cells (density […] in 20 mL) is removed and replaced by 3 mL of a fresh one containing compounds of Formula (I) or Formula (Ia). Media is used as a negative compound.
After a 24 h incubation period at 5% CO2 and 37° C., the media is removed and a scratch is performed in each well. 1 mL of fresh complete growth media is used to wash the well. After its removal, 3 mL of a solution containing a compound of Formula (I) or Formula (Ia) is added in each well in triplicate. Pictures of the wells are then taken. After 24 h, pictures of the wells are again taken. […]
The cell migration assay used was the transwell (Boyden chamber) assay of cell migration in human breast cancer cell line MDA-MB-436. After a scratch was performed in each well the cells were incubated with a 10 micromolar solution of compound for 24 hours prior to passage into transwell chambers where they were maintained in the presence of compound for a further 24 hours before assessment of migration (measured by total fluorescence on opposing surface of transwell membrane following staining). Reduced fluorescence directly correlates with number of cells migrated. […]

Compound: O=C(Nc1ccccc1C(=O)NCCN1CCOCC1)c1ccc2ccccc2c1 [Compound 31]
- potency of effect in Model 1 relative to compound 28 [1]: more potent effects than compound 28
- inhibition of metastasis / tumour burden in Model 1 ([1]; versus controls and compound 12): equivalent inhibition of metastasis in vivo to compound 12
- reduction of cell migration (total fluorescence on opposing surface of transwell membrane) [2]: more effective at reducing cell migration than the known potent cell migration inhibitor MEKi
